Reference: patent publication US11208433B2, “Peptide for inhibiting skin inflammation and composition for preventing or treating skin inflammation containing the same” (AVIXGEN Inc., priority 2017, dated 2021)

Experiments:
[1] = system: atopic dermatitis animal model; assay: Histopathological examination of ear epidermis and dermis (H&E scoring); assay type: in vivo, NC/Nga mouse; details: infiltration by inflammatory cells, p<0.05, FIGS. 8 and 9; for epidermis score level compared with group 2: hypertrophy, hyperkeratosis
Procedure: After the ear auricle of the NC/Nga mouse was shaved with a razor, the epilating agent was applied in an appropriate amount for the complete depilation. After the epilating agent was wiped off, Then, 100 mg of the AD-inducing reagent shown in Table 2 as below was uniformly applied to the ear auricle using a micropipette tip, thereby inducing atopic dermatitis for the first time. After shaving with a razor for necessary, 150 μL of a 4% SDS aqueous solution was uniformly applied to the ear auricle using a micropipette, dried with a cold air using a dryer, and air-dried for about 2 to 3 hours. Then, 100 mg of the same AD-inducing reagent was uniformly applied to the ear auricle using a micropipette tip, thereby inducing atopic dermatitis after 2 times. All treatments were carried out twice a week to be 6 times for a total of 3 weeks, thereby producing atopic dermatitis animal model. The mice of groups 2 to 5 were obtained by the atopic dermatitis animal model prepared in Experimental Method 3 as described above. The experimental substance and the control substance were uniformly applied to the ear auricle using a micropipette tip. From the day of the experimental substance administration (Day 0) to the day of the autopsy (Day 14), they were administered once a day for 2 weeks. On the day of the autopsy, ears were removed for the histopathological examination and fixed in 10% neutral buffered formalin solution. The fixed tissues were subject to the general tissue treatment such as reprofiling, dehydration, paraffin embedding, and dissection, thereby preparing specimens for histopathological examination. Then, hematoxylin and eosin (H & E) and TUNEL assays were performed on histopathologic specimens, and the light microscopy (Olympus BX53, Japan) was used to observe histopathologic changes. In the histopathologic evaluation using hematoxylin and eosin staining slides, in order to compare the degree of the lesion with the induced control group, the most severe lesion was selected, and then the hypertrophy, hyperkeratosis and infiltration by inflammatory cells were evaluated in the epidermis. In the dermis, the infiltration by inflammatory cells was evaluated. Scoring criteria are the same as 0 (no symptoms), 1 (mild), 2 (moderate), and 3 (severe) (Taniguchi Y et al 2003).

[2] = system: atopic dermatitis animal model; assay: Visual pathological evaluation (skin clinical index) in atopic dermatitis animal model; assay type: in vivo, NC/Nga mouse; details: 14th day after administration; p<0.05; FIG. 6
Procedure: After the ear auricle of the NC/Nga mouse was shaved with a razor, the epilating agent was applied in an appropriate amount for the complete depilation. After the epilating agent was wiped off, Then, 100 mg of the AD-inducing reagent shown in Table 2 as below was uniformly applied to the ear auricle using a micropipette tip, thereby inducing atopic dermatitis for the first time. After shaving with a razor for necessary, 150 μL of a 4% SDS aqueous solution was uniformly applied to the ear auricle using a micropipette, dried with a cold air using a dryer, and air-dried for about 2 to 3 hours. Then, 100 mg of the same AD-inducing reagent was uniformly applied to the ear auricle using a micropipette tip, thereby inducing atopic dermatitis after 2 times. All treatments were carried out twice a week to be 6 times for a total of 3 weeks, thereby producing atopic dermatitis animal model. The mice of groups 2 to 5 were obtained by the atopic dermatitis animal model prepared in Experimental Method 3 as described above. The experimental substance and the control substance were uniformly applied to the ear auricle using a micropipette tip. […] For each individual, 0 (none), 1 (mild), 2 (moderate) and 3 (severe) were recorded for erythema/hemorrhage, edema, excoriation/erosion and scaling/dryness. […]

[3] = system: IgE; assay: ELISA analysis of serum IgE in atopic dermatitis animal model; details: day of autopsy (Day 14)
[4] = system: atopic dermatitis animal model; assay: Ear thickness measurement in atopic dermatitis animal model; assay type: in vivo, NC/Nga mouse; details: FIG. 2; for ear thickness compared with induced control group (group 2): 7th and 14th day after administration, tetrapeptide 0.622, ACP-tetrapeptide 4.987, prednisolone 50 μg/ear once a day, p<0.001 or p<0.01
Procedure: After the ear auricle of the NC/Nga mouse was shaved with a razor, the epilating agent was applied in an appropriate amount for the complete depilation. After the epilating agent was wiped off, Then, 100 mg of the AD-inducing reagent shown in Table 2 as below was uniformly applied to the ear auricle using a micropipette tip, thereby inducing atopic dermatitis for the first time. After shaving with a razor for necessary, 150 μL of a 4% SDS aqueous solution was uniformly applied to the ear auricle using a micropipette, dried with a cold air using a dryer, and air-dried for about 2 to 3 hours. Then, 100 mg of the same AD-inducing reagent was uniformly applied to the ear auricle using a micropipette tip, thereby inducing atopic dermatitis after 2 times. All treatments were carried out twice a week to be 6 times for a total of 3 weeks, thereby producing atopic dermatitis animal model. The mice of groups 2 to 5 were obtained by the atopic dermatitis animal model prepared in Experimental Method 3 as described above. The experimental substance and the control substance were uniformly applied to the ear auricle using a micropipette tip. From the day of the experimental substance administration (Day 0) to the day of the autopsy (Day 14), they were administered once a day for 2 weeks. Ear thickness was measured for each individual by calipers, and the ear area was photographed. Ear thickness measurement and photographing were performed once a week on the day of starting the experimental substance administration and thereafter.

[5] = system: VE-cadherin (adherens junction); assay: Recovery of VE-cadherin broken by VEGF in HUVEC (confocal immunofluorescence); assay type: cell-based, Human; details: peptide pretreatment 30 minutes, VEGF 20 ng/ml 1 hour, FIGS. 16 and 17
Procedure: (§1) HUVECs were starved with M199 media supplemented with 1% FBS for 4 hours, inoculated on a 24-well plate containing glass at the number of 1×10^5 cells, and cultured for 24 hours to attach the cells to the glass. HUVECs were pretreated with the acetylated tetrapeptide and the non-acetylated tetrapeptide (—Ac) for 30 minutes and treated with VEGF at a concentration of 20 ng/ml for 1 hour. Thereafter, the cells were washed three times with PBS, fixed in 3.7% formaldehyde for 20 minutes, and treated with PBS containing 0.2% Triton X-100 to increase […] permeability. After blocking with 3% BSA for 1 hour, they were reacted with VE-cadherin (adherens junction) and ZO-1 (tight junction) antibodies at room temperature for 2 hours and washed three times with PBS. They were treated with Cy3 secondary antibodies, reacted at room temperature for 1 hour, washed twice with PBS, and stained with DAPI for 10 minutes. The huvec-attached glass was removed and mounted on a sliding glass.

[6] = system: ZO-1 (tight junction); assay: Recovery of ZO-1 broken by VEGF in HUVEC (confocal immunofluorescence); assay type: cell-based, Human; details: peptide pretreatment 30 minutes, VEGF 20 ng/ml 1 hour, FIGS. 18 and 19
Procedure: as §1

[7] = system: histamine; assay: ELISA analysis of serum histamine in atopic dermatitis animal model; assay type: in vivo, NC/Nga mouse; details: day of autopsy (Day 14)
Procedure: (§2) After the ear auricle of the NC/Nga mouse was shaved with a razor, the epilating agent was applied in an appropriate amount for the complete depilation. After the epilating agent was wiped off, Then, 100 mg of the AD-inducing reagent shown in Table 2 as below was uniformly applied to the ear auricle using a micropipette tip, thereby inducing atopic dermatitis for the first time.
(§3) After shaving with a razor for necessary, 150 μL of a 4% SDS aqueous solution was uniformly applied to the ear auricle using a micropipette, dried with a cold air using a dryer, and air-dried for about 2 to 3 hours. Then, 100 mg of the same AD-inducing reagent was uniformly applied to the ear auricle using a micropipette tip, thereby inducing atopic dermatitis after 2 times. All treatments were carried out twice a week to be 6 times for a total of 3 weeks, thereby producing atopic dermatitis animal model.
(§4) The mice of groups 2 to 5 were obtained by the atopic dermatitis animal model prepared in Experimental Method 3 as described above.
(§5) The experimental substance and the control substance were uniformly applied to the ear auricle using a micropipette tip. From the day of the experimental substance administration (Day 0) to the day of the autopsy (Day 14), they were administered once a day for 2 weeks.
On the day of the autopsy, blood samples were collected from the abdominal vein using a syringe. The serum isolated from the blood was analyzed for IgE and histamine using an ELISA kit.

[8] = system: atopic mouse skin tissues; assay: Immunohistochemical staining of atopic mouse skin tissue (angiogenic marker, inflammatory cells, keratin); assay type: in vivo, NC/Nga mouse
Procedure: as §2, §3, §4, §5
Atopy mouse skin tissues were immersed in Xylene three times for 5 minutes, 100% ethanol for 2 minutes, 95% ethanol for 2 minutes, 90% ethanol for 2 minutes, 70% ethanol for 2 minutes and D.W. for 2 minutes to remove paraffin and to perform hydration. After washing with PBS, they were treated with 0.2% Triton X-100 to increase cell permeability. After re-washing with PBS, they were reacted with blocking solution, 3% bovine serum albumin, for 1 hour. For inflammatory cells and keratin staining, they were reacted with F4/80 (sc-377009, Santa Cruz) and cytokeratin (NB600-579, NOVUSBIO) antibodies, respectively, at room temperature for 2 hours. After washing with PBS, they were treated with Texas Red (ab6787, Abcam) secondary antibody and reacted at room temperature for 60 minutes. The mounting solution was dropped on the tissue of the slide. Then, the tissue was covered with a cover slide, and the sample was observed under a fluorescence microscope. For analysis of the degree of angiogenesis, the atopic skin tissue was reacted with FITC-conjugated isolectin B4 (L2895, Sigma), a blood vessel marker at room temperature for 2 hours. The mounting solution was dropped on the tissue of the slide. Then, the tissue was covered with a cover slide, and the sample was observed under a fluorescence microscope
The mouse skin tissues stained with the respective markers were photographed using a fluorescence microscope (DMil, Leica, Germany), and fluorescence intensities were quantitatively analyzed using an ImageJ program (NIH, Bethesda, Md., USA).

**Q.** Which “epidermis score level compared with group 2” value [1] does the source give for `C[C@]12C=CC(=O)C=C1CC[C@@H]1[C@@H]2[C@@H](O)C[C@@]2(C)[C@H]1CC[C@]2(O)C(=O)CO` [Prednisolone, prednisolone, reference compound] here?
**A.** significantly lower

**Q.** What about the “dermis score level compared with group 2” value [1] of the same molecule?
**A.** significantly lower

**Q.** And the “scaling/dryness level compared with group 2” value [2]?
**A.** significantly lower

**Q.** And the “IgE level compared with group 2 (induced control)” value ([3]; p<0.001 or p<0.01, FIG. 7)?
**A.** significantly lower

**Q.** What about the “ear thickness compared with induced control group (group 2)” value [4] of the same molecule?
**A.** significantly thinner

**Q.** With RLYE [Tetrapeptide] as the molecule, how does the “damage level of VE-cad caused by VEGF” value [5] read?
**A.** recovered to a level similar to that of the control group without VEGF treatment

**Q.** What about the “damage level of ZO-1 caused by VEGF” value [6] of the same molecule?
**A.** recovered to a level similar to that of the control group without VEGF treatment

**Q.** What about the “histamine level compared with prednisolone treated group” value ([7]; FIG. 7) of the same molecule?
**A.** lower than that of the prednisolone treated group

**Q.** And the “histamine level compared with group 2 (induced control)” value ([7]; p<0.001 or p<0.01, FIG. 7)?
**A.** significantly lower

**Q.** What about the “angiogenesis (Isolectin B4 staining)” value ([8]; atopic mouse skin tissue, also similar to prednisolone treated group, FIG. 10) of the same molecule?
**A.** lower than that of the inducted control group

**Q.** What about the “inflammatory cell inflow (F4/80 staining)” value ([8]; atopic mouse skin tissue, also similar to prednisolone treated group, FIG. 11) of the same molecule?
**A.** lower than that of the inducted control group

**Q.** What about the “keratinization and fibrosis (cytokeratin staining)” value ([8]; atopic mouse skin tissue, also similar to prednisolone treated group, FIG. 12) of the same molecule?
**A.** lower than that of the inducted control group

**Q.** And the “anti-atopic effect compared with prednisolone” value ([8]; treatment amount having a molar ratio lower than 1000 times that of prednisolone, FIG. 13)?
**A.** superiority to prednisolone

**Q.** And the “epidermis score level compared with group 2” value [1]?
**A.** significantly lower

**Q.** And the “dermis score level compared with group 2” value [1]?
**A.** significantly lower

**Q.** And the “IgE level compared with prednisolone treated group” value ([3]; FIG. 7)?
**A.** lower than that of the prednisolone treated group

**Q.** What about the “IgE level compared with group 2 (induced control)” value ([3]; p<0.001 or p<0.01, FIG. 7) of the same molecule?
**A.** significantly lower

**Q.** And the “IgE level compared with normal control group” value ([3]; p<0.001 or p<0.01, FIG. 7)?
**A.** significantly higher

**Q.** What about the “ear thickness compared with induced control group (group 2)” value [4] of the same molecule?
**A.** significantly thinner

**Q.** And the “ear thickness compared with normal control group (group 1)” value ([4]; 14th day after administration, p<0.001)?
**A.** significantly thicker

**Q.** For “Tetrapeptide (—Ac): non-acetylated tetrapeptides (RLYE)”, which “damage level of VE-cad caused by VEGF” value [5] is on record?
**A.** recovered to a level similar to that of the control group without VEGF treatment

**Q.** What about the “damage level of ZO-1 caused by VEGF” value [6] of the same molecule?
**A.** recovered to a level similar to that of the control group without VEGF treatment
